BindingDB's records for patent US11926614 (Oslo Universitetssykehus, 2024)

Biological target: T1, Poly [ADP-ribose] polymerase tankyrase-2 (Homo sapiens, UniProt Q9H2K2)
T1 sequence (Q9H2K2 whole entry): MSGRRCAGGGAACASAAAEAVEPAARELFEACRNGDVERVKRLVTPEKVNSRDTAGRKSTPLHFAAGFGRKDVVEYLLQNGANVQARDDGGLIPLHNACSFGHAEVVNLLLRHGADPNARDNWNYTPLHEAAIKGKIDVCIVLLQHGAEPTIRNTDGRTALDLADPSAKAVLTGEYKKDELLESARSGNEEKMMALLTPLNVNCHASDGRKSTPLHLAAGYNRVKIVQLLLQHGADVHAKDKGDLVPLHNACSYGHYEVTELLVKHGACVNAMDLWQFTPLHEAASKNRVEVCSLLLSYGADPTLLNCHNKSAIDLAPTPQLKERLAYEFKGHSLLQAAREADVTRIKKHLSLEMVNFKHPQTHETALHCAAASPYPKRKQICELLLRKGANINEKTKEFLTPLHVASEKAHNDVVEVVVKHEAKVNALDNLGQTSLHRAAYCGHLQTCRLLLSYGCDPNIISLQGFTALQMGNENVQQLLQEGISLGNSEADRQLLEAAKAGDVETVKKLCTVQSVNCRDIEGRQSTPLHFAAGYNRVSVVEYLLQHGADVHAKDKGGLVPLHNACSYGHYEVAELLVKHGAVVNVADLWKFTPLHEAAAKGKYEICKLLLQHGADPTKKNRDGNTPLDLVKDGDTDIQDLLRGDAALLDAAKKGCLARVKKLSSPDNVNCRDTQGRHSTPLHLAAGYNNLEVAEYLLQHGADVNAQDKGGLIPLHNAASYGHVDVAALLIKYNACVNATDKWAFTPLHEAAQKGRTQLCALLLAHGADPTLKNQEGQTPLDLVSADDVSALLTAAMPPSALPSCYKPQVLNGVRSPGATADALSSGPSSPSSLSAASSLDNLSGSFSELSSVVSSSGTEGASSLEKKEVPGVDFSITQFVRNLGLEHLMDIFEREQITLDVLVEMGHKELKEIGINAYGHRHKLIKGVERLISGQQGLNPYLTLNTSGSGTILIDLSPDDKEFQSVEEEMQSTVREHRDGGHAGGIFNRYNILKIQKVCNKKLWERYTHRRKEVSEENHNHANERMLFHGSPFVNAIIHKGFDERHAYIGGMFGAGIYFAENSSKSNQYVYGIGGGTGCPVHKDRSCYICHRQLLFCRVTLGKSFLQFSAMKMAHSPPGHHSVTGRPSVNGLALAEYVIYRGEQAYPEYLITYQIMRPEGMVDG
Assay: Biochemical Assay
Text: IC50 calculations:XLfit (idbs) was used to determine the IC50-values in inhibition experiments. The following formula was chosen to fit the data points (Langmuir Binding Isotherm):fit=((A+(B*x))+[…]*(1−exp((−1*D)*x)))/D)), res=(y−fit)

O=C(N[C@H]1C[C@H](c2nnc(-c3nccs3)n2-c2ccccc2F)C1)c1ccnc2cc(F)cnc12 [US11926614, Example 29]
IC50: 2 nM
